Test results published in ChEMBL document CHEMBL1133730 (J Med Chem, 2000).

Tests used:
[1] = target: T1, Adenosine receptor A1 (Rattus norvegicus) (UniProt P25099); experiment: Maximum stimulation against adenosine A1 receptor of rat cerebral cortical membrane
T1 sequence (whole entry): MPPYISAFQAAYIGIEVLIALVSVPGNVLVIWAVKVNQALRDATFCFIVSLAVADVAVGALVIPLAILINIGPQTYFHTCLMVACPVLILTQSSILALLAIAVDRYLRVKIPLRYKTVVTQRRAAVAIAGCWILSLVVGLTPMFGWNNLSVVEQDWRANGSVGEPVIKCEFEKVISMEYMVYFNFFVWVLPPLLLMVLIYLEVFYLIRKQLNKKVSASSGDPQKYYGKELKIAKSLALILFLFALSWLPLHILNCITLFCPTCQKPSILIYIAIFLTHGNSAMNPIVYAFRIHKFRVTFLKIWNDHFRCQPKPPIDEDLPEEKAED

[2] = target: T2, Adenosine receptor A1 (Homo sapiens) (UniProt P30542); experiment: Maximum stimulation against human adenosine A1 receptor
T2 sequence (whole entry): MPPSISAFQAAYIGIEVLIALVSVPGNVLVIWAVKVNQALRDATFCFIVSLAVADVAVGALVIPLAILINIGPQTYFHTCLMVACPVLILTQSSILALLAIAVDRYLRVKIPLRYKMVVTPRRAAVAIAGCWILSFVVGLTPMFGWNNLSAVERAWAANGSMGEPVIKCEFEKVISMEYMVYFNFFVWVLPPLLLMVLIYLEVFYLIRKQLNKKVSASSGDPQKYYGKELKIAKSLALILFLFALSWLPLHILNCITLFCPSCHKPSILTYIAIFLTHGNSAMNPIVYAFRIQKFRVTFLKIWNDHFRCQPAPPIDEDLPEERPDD

[3] = target: T3, Adenosine receptor A3 (Homo sapiens) (UniProt P0DMS8); experiment: Maximum stimulation against human adenosine A3 receptor
T3 sequence (whole entry): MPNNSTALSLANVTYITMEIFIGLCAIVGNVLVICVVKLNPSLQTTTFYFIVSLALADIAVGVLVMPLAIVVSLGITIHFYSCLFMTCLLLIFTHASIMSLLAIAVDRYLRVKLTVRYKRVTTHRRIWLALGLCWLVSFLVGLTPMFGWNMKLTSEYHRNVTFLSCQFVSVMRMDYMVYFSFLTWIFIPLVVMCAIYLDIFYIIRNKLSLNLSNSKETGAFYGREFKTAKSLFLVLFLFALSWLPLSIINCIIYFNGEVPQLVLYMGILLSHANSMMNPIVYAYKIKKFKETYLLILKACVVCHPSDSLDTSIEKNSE

[4] = target: Adenosine receptor A2a (Rattus norvegicus) (UniProt P30543); experiment: Displacement of [3H]-CGS- 21680 from adenosine A2A receptor of rat striatal membranes at 100 uM; format: cell membranes; conditions: Membrane
Adenosine receptor A1 [5] = target: T4, Adenosine receptor A1 (Homo sapiens, UniProt P30542); experiment: Stimulation of [35S]GTP-gamma-S, binding to human adenosine A1 receptor; format: functional
T4 sequence (P30542 whole entry): T2 sequence (whole entry)

Adenosine receptor A3 [6] = target: T5, Adenosine receptor A3 (Homo sapiens, UniProt P0DMS8); experiment: Displacement of [125I]- AB-MECA from human adenosine A3 receptor expressed in HEK cells; format: cell-based, HEK293
T5 sequence (P0DMS8 whole entry): T3 sequence (whole entry)

[7] = target: Adenosine receptors; A1 & A3 (Rattus norvegicus) (UniProt P25099+P28647); experiment: Relative binding affinity for Adenosine A1 and A3 receptors; format: protein assay
Adenosine receptor A3 [8] = target: T5, Adenosine receptor A3; experiment: Stimulation of [35S]GTP-gamma-S, against human adenosine A3 receptor; format: functional
Adenosine receptor A1 [9] = target: T6, Adenosine receptor A1 (Rattus norvegicus, UniProt P25099)
T6 sequence (P25099 whole entry): T1 sequence (whole entry)

Adenosine receptor A3 [10] = target: T7, Adenosine receptor A3 (Rattus norvegicus, UniProt P28647); experiment: Displacement of [125I]- AB-MECA from rat adenosine A3 receptor expressed in CHO cells; format: cell-based
T7 sequence (P28647 whole entry): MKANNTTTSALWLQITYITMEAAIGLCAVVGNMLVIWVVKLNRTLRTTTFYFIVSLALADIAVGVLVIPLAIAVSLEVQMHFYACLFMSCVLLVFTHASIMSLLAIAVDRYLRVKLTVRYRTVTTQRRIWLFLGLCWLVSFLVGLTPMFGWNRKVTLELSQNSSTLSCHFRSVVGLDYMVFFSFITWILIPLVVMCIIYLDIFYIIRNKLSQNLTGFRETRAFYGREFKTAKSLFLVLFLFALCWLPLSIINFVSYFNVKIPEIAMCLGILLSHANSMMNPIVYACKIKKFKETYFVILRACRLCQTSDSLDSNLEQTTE

Adenosine receptor A2a [11] = target: Adenosine receptor A2a (Rattus norvegicus, UniProt P30543)
[12] = target: T1, Adenosine receptor A1 (Rattus norvegicus); experiment: Displacement of [3H]R-PIA from adenosine A1 receptor in rat brain membranes at 100 uM; format: cell membranes
[13] = target: T8, Adenosine receptor A2b (Homo sapiens) (UniProt P29275); experiment: Displacement of [3H]- ZM-241385 from human adenosine A2B receptor expressed in HEK cell at 50 uM; format: cell-based; conditions: HEK293
T8 sequence (whole entry): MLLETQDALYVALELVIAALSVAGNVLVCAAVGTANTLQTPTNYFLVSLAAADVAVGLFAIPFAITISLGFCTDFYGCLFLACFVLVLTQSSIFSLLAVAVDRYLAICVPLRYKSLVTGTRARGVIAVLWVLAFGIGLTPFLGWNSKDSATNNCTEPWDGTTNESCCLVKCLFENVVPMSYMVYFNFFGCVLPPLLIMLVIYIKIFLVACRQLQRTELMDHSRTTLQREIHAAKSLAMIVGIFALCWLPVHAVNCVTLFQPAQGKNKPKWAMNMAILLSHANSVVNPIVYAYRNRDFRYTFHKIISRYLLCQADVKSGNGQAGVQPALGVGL

Adenosine receptor A3 [14] = target: T5, Adenosine receptor A3; experiment: Displacement of [125I]- AB-MECA from human adenosine A3 receptor expressed in HEK cell in the absence of ADA; format: cell-based, HEK293
Adenosine receptor A2a [15] = target: Adenosine receptor A2a (Homo sapiens, UniProt P29274); experiment: Displacement of [3H]ZM241385 from human adenosine A2A receptor expressed in HEK cells.
Adenosine receptor A2b = target: T9, Adenosine receptor A2b (Homo sapiens, UniProt P29275); experiment: biochemical
T9 sequence (P29275 whole entry): T8 sequence (whole entry)

Adenosine receptor A1 [16] = target: T6, Adenosine receptor A1; remark: listed apart in the source
[17] = target: T8, Adenosine receptor A2b (Homo sapiens); experiment: Displacement of [3H]ZM241,385 binding to human adenosine A2B receptor expressed in HEK cells at 100 uM; format: cell-based; conditions: HEK293

Sequence of Adenosine receptor A2a (Rattus norvegicus, UniProt P30543) (P30543 whole entry): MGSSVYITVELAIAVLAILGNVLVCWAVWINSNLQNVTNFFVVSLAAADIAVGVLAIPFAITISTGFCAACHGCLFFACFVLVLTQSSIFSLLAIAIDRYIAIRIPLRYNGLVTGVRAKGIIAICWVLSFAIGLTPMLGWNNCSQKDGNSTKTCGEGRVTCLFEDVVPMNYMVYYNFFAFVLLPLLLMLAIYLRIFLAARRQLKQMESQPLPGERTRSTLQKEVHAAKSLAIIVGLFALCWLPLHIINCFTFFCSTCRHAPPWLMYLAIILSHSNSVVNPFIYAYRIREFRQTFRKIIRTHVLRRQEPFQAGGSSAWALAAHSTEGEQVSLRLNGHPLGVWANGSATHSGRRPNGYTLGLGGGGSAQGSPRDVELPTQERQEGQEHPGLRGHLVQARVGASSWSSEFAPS
Sequence of Adenosine receptor A2a (Homo sapiens, UniProt P29274) (P29274 whole entry): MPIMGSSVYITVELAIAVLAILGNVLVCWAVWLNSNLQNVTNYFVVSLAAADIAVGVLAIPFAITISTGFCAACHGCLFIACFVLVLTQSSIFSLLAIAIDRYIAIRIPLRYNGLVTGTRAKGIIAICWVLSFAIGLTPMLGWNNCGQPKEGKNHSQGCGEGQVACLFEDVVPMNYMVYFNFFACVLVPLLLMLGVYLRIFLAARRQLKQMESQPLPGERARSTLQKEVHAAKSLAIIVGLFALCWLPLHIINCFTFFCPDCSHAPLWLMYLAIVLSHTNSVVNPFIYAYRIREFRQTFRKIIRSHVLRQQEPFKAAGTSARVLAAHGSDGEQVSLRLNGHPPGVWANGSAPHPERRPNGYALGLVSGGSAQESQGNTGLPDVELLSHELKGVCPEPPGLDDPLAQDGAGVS
Sequence of Adenosine receptor A2a (Rattus norvegicus) (P30543 whole entry): as the sequence (P30543 whole entry) above

| SMILES | Max [1] [%] | Max [2] [%] | Max [3] [%] | EC50 (Adenosine receptor A1 [5]) [nM] | Ki (Adenosine receptor A3 [6]) [nM] | Ratio [7] | EC50 (Adenosine receptor A3 [8]) [nM] | Ki (Adenosine receptor A1 [9]) [nM] | Ki (Adenosine receptor A2a [11]) [nM] | also measured |
| --- | --- | --- | --- | --- | --- | --- | --- | --- | --- | --- |
| OC[C@H]1O[C@@H](n2cnc3c(NCc4cccc(I)c4)ncnc32)[C@H](O)[C@@H]1O | 95 | 91 | 100 | – | – | – | – | – | – | – |
| OC[C@H]1C[C@@H](n2cnc3c(NCc4cccc(I)c4)ncnc32)[C@H](O)[C@@H]1O | – | 5 | 14 | > 10000 | 1960 | 13 | > 10000 | 25900 | – | Displacement [4]: < 10% |
| Nc1ncnc2c1ncn2[C@@H]1O[C@H](CO)[C@@H](O)[C@H]1O [ADENOSINE] | – | – | – | – | – | – | – | – | – | Ki (Adenosine receptor A3 [10]): 1000 nM |
| OC[C@H]1O[C@@H](n2cnc3c(NC4CCCC4)ncnc32)[C@H](O)[C@@H]1O [N6-CYCLOPENTYLADENOSINE] | – | 100 | 100 | – | – | – | – | – | 857 | – |
| Nc1ncnc2c1ncn2[C@@]12C[C@H]1[C@H](CO)[C@@H](O)[C@H]2O | – | – | – | – | – | > 1 | – | – | – | Displacement [12]: 15%; Displacement [13]: 20%; Ki (Adenosine receptor A3 [14]): 62500 nM; Ki (Adenosine receptor A2a [15]): > 100000 nM |
| Nc1ncnc2c1ncn2[C@H]1[C@H](O)[C@H](O)[C@]2(CO)C[C@H]12 | – | – | – | – | – | 4.2 | – | 1680 | – | Displacement [13]: 35%; Ki (Adenosine receptor A3 [14]): 404 nM; Ki (Adenosine receptor A2a [15]): 22500 nM |
| OC[C@@]12C[C@@H]1[C@@H](n1cnc3c(NCc4cccc(I)c4)ncnc31)[C@H](O)[C@@H]2O | – | 86 | 45.3 | 218 | 4.13 | – | 0.7 | – | 601 | Ki (Adenosine receptor A2b): 12100 nM |
| OC[C@@]12C[C@@H]1[C@@H](n1cnc3c(NC4CCCC4)ncnc31)[C@H](O)[C@@H]2O | 75 | 102 | 14 | 21.5 | 170 | 0.03 | > 10000 | 5.06 | 6800 | EC50 (Adenosine receptor A1 [16]): 100 nM; Ki (Adenosine receptor A2b): 139000 nM |
| OC[C@@]12C[C@@H]1[C@@H](n1cnc3c(NCc4cccc(I)c4)nc(Cl)nc31)[C@H](O)[C@@H]2O | 48 | 91 | 22 | 142 | – | 63 | 0.67 | 141 | 732 | EC50 (Adenosine receptor A1 [16]): 684 nM; Ki (Adenosine receptor A2b): 41000 nM |
| CCNC(=O)[C@H]1O[C@@H](n2cnc3c(N)ncnc32)[C@H](O)[C@@H]1O | – | – | 100 | – | – | – | – | – | – | – |
| OC[C@@]12C[C@@H]1[C@@H](n1cnc3c(NC4CCCC4)nc(Cl)nc31)[C@H](O)[C@@H]2O | 96 | 97 | 15 | 31.2 | 466 | 0.019 | > 10000 | 8.76 | 3390 | Displacement [17]: 27%; EC50 (Adenosine receptor A1 [16]): 145 nM |
